27 compounds from patent US10508085B2, “Compounds and methods for IDO and TDO modulation, and indications therefor” (Plexxikon Inc., priority 2016, dated 2019) can be followed below.

Assay [1] concerns the target T1, human TDO (TDO-expressing HEK293 cells) (Homo sapiens, UniProt P48775).
T1 construct: expressed in transfected cells
Nature of the assay: Cell based kynurenine assay, TDO-expressing HEK293 cell clones. The note with it: TDO-expressing HEK293 cells, 24 hours incubation; geometric mean; read-out: HEK293 TDO Kynurenine GMean IC50 (μM) (Cellular Assay). The gist of the method:
(§1)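 Steps: seed IDO1- or TDO-expressing HEK293 cells at 2.5×10^4 per well; add compound dilutions; incubate 24 h; transfer supernatant and determine kynurenine; derive IC50 via nonlinear regression of percent inhibition.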

Assay [2] concerns the target T2, Human Indoleamine 2,3-dioxygenase (IDO) (Homo sapiens, UniProt P14902).
T2 construct: His tag (N); made in house; host or cells: E. coli
The assay can be described thus: Human IDO enzymatic assay (kynurenine level). The assay is classed as biochemical. The note with it: 6 nM IDO, 10 μM L-Trp; geometric mean; read-out: IDO1 GMean: IC50 (μM) (Biochemical Assay). The gist of the method:
(§2)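 Kynurenine formed is measured after TCA quench and 50 °C hydrolysis, with % inhibition against full-reaction and no-enzyme controls (5% DMSO). IDO: 6 nM enzyme, 10 μM L-Trp, 5 μM methylene blue, 20 min; TDO: 1 nM, 350 μM L-Trp, 0.4 μM methylene blue, 70 min; both pH 6.5, room temp, E. coli-expressed His-tagged.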

In assay [3] the target is T3, human IDO (IDO1-expressing HEK293 cells) (Homo sapiens, UniProt P14902).
T3 construct: expressed in transfected cells
The assay can be described thus: Cell based kynurenine assay, IDO1-expressing HEK293 cell clones. The note with it: IDO1-expressing HEK293 cells, 24 hours incubation; geometric mean; read-out: HEK293 IDO1 Kynurenine GMean IC50 (μM) (Cellular Assay). The gist of the method:
as §1

Assay [4] deals with T4, Human Tryptophan 2,3-dioxygenase (TDO) (Homo sapiens, UniProt P48775).
T4 construct: His tag (N); made in house; host or cells: E. coli
Nature of the assay: Human TDO enzymatic assay (kynurenine level). The assay is classed as biochemical. The note with it: 1 nM TDO, 350 μM L-Trp; geometric mean; read-out: TDO GMean: IC50 (μM) (Biochemical Assay). The gist of the method:
as §2

Bounds are passed on as bounds.

T2 sequence (P14902 whole entry): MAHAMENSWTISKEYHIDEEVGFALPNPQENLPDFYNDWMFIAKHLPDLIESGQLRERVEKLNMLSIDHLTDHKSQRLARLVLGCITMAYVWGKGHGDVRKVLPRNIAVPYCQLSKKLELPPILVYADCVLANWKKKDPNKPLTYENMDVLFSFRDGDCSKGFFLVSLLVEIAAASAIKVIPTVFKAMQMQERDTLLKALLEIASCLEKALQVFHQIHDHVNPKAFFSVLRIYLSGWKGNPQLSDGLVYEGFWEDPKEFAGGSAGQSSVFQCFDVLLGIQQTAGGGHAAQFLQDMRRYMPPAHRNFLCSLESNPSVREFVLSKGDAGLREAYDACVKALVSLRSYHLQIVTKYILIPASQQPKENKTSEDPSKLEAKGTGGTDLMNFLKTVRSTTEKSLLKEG
T3 sequence (P14902 whole entry): as above
T1 sequence (P48775 whole entry): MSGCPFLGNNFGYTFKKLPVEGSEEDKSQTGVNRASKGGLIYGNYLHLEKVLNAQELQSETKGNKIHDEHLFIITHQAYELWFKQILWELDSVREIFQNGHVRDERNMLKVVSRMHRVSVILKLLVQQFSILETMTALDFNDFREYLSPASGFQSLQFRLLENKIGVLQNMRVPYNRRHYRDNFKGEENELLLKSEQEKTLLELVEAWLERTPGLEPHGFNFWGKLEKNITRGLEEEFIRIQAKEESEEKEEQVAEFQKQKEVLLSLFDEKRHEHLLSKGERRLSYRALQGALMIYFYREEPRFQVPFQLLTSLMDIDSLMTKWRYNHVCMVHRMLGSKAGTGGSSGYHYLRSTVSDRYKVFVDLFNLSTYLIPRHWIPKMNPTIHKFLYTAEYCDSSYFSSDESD
T4 sequence (P48775 whole entry): as above

In the case of `CC(C)(C1CCN(S(C)(=O)=O)CC1)C(O)c1cc(Cl)cc2cn[nH]c12` (stereo not drawn) [Compound P-0198, 1-(5-chloro-1H-indazol-7-yl)-2-methyl-2-(1-(methylsulfonyl)piperidin-4-yl)propan-1-ol], the IC50 in assay [1], in assay [2], in assay [3] and in assay [4] was 0.0001 to 10 µM each time.

Consider `CC(C)(C1CCCC1)C(O)c1cc(Cl)cc2cn[nH]c12` (stereo not drawn) [Compound P-0199, 1-(5-chloro-1H-indazol-7-yl)-2-cyclopentyl-2-methylpropan-1-ol], for which the IC50 in assay [1], in assay [2], in assay [3] and in assay [4] was 0.0001 to 10 µM in each case.

With `OC1(c2cc(Cl)cc3cn[nH]c23)CC(c2ccccc2)C1` (stereo not drawn) [Compound P-0201, 1-(5-chloro-1H-indazol-7-yl)-3-phenylcyclobutan-1-ol], the IC50 is greater than 10 µM in assay [1], 0.0001 to 10 µM in assay [2], greater than 10 µM in assay [3] and 0.0001 to 10 µM in assay [4].

`CC(C)(CN1CCCC1)C(O)c1cc(Cl)cc2cn[nH]c12` (stereo not drawn) [Compound P-0202, 1-(5-chloro-1H-indazol-7-yl)-2,2-dimethyl-3-(pyrrolidin-1-yl)propan-l-ol]: the 50% inhibitory concentration (IC50) in assay [1] was greater than 10 µM; in assay [2], 10 to 100 µM; in assay [3], greater than 10 µM; in assay [4], 0.0001 to 10 µM.

`OC(c1cc(Cl)cc2cn[nH]c12)C(C1CCC1)C1CCC1` (stereo not drawn) [Compound P-0203, 1-(5-chloro-1H-indazol-7-yl)-2,2-dicyclobutylethan-1-ol]: the IC50 in assay [1], in assay [2], in assay [3] and in assay [4] was 0.0001 to 10 µM throughout.

With `OC(c1cc(Cl)cc2cn[nH]c12)C(C1CC1)C1CC1` (stereo not drawn) [Compound P-0204, 1-(5-chloro-1H-indazol-7-yl)-2,2-dicyclopropylethan-1-ol], the IC50 in assay [1], in assay [2], in assay [3] and in assay [4] was 0.0001 to 10 µM in each case.

In the case of `CC(O)(c1cc(Cl)cc2cn[nH]c12)C1CCCC1` (stereo not drawn) [Compound P-0205, 1-(5-chloro-1H-indazol-7-yl)-1-cyclopentylethan-1-ol], the IC50 in assay [1] is 0.0001 to 10 µM; in assay [2], 10 to 100 µM; in assay [3], greater than 10 µM; in assay [4], 10 to 100 µM.

In the case of `OC1(c2cc(Cl)cc3cn[nH]c23)CCC1` [Compound P-0206, 1-(5-chloro-1H-indazol-7-yl)cyclobutan-1-ol], the 50% inhibitory concentration (IC50) was 0.0001 to 10 µM in assay [1], 10 to 100 µM in assay [2], greater than 10 µM in assay [3] and 10 to 100 µM in assay [4].

As to `CC1(C(O)c2c(Cl)ccc3cn[nH]c23)CCCCC1` (stereo not drawn) [Compound P-0207, (6-chloro-1H-indazol-7-yl)(1-methylcyclohexyl)methanol], the IC50 in assay [1] was in the range of 0.0001 to 10 µM; in assay [2], 0.0001 to 10 µM; in assay [3], 0.0001 to 10 µM; in assay [4] it was 10 to 100 µM.

With `OC(c1cc(Cl)cc2cn[nH]c12)C12CCC(CC1)CC2` (stereo not drawn) [Compound P-0208, bicyclo[2.2.2]octan-1-yl(5-chloro-1H-indazol-7-yl)methanol], the IC50 in assay [1], in assay [2], in assay [3] and in assay [4] was 0.0001 to 10 µM in each case.

Regarding `OC(c1cc(Cl)cc2cn[nH]c12)C12CC(C1)C2` (stereo not drawn) [Compound P-0209, bicyclo[1.1.1]pentan-1-yl(5-chloro-1H-indazol-7-yl)methanol], the concentration for half-maximal inhibition (IC50) in assay [1], in assay [2], in assay [3] and in assay [4] was 0.0001 to 10 µM each time.

Take `OC(CC1CCOCC1)c1cc(Cl)cc2cn[nH]c12` (stereo not drawn) [Compound P-0210, 1-(5-chloro-1H-indazol-7-yl)-2-(tetrahydro-2H-pyran-4-yl)ethan-1-ol]: the IC50 in assay [1], in assay [2], in assay [3] and in assay [4] was 0.0001 to 10 µM throughout.

On to `CC1(C(O)c2cc(Cl)cc3cn[nH]c23)COC1` (stereo not drawn) [Compound P-0211, (5-chloro-1H-indazol-7-yl)(3-methyloxetan-3-yl)methanol], for which the 50% inhibitory concentration (IC50) in assay [1], in assay [2], in assay [3] and in assay [4] was 0.0001 to 10 µM throughout.

For the compound `CC(C)(C)C(O)c1cc(Cl)cc2cn[nH]c12` (stereo not drawn) [Compound P-0212, 1-(5-chloro-1H-indazol-7-yl)-2,2-dimethylpropan-1-ol], the IC50 in assay [1], in assay [2], in assay [3] and in assay [4] was 0.0001 to 10 µM throughout.

On to `CC(C)(CCC#N)C(O)c1cc(Cl)cc2cn[nH]c12` (stereo not drawn) [Compound P-0213, 5-(5-chloro-1H-indazol-7-yl)-5-hydroxy-4,4-dimethylpentanenitrile], for which the IC50 in assay [1], in assay [2], in assay [3] and in assay [4] was 0.0001 to 10 µM each time.

For the compound `CC(C)(C)C1CC(O)(c2cc(Cl)cc3cn[nH]c23)C1` (stereo not drawn) [Compound P-0214, 3-(tert-butyl)-1-(5-chloro-1H-indazol-7-yl)cyclobutan-1-ol], the IC50 in assay [1], in assay [2], in assay [3] and in assay [4] was 0.0001 to 10 µM throughout.

Consider `CC(C)(C(O)c1cc(Cl)cc2cn[nH]c12)N1CCOCC1` (stereo not drawn) [Compound P-0215, 1-(5-chloro-1H-indazol-7-yl)-2-methyl-2-morpholinopropan-1-ol], for which the IC50 in assay [1], in assay [2], in assay [3] and in assay [4] was 0.0001 to 10 µM each time.

On to `CC(C)(C(O)c1cc(Cl)cc2cn[nH]c12)N1CCCCC1` (stereo not drawn) [Compound P-0216, 1-(5-chloro-1H-indazol-7-yl)-2-methyl-2-(piperidin-1-yl)propan-1-ol], for which the IC50 in assay [1] is greater than 10 µM; in assay [2], greater than 200 µM; in assay [3], greater than 10 µM; in assay [4], 10 to 100 µM.

Take `CC(C)(C1CCOCC1)C(O)c1cc(Cl)c(F)c2cn[nH]c12` (stereo not drawn) [Compound P-0217, 1-(5-chloro-4-fluoro-1H-indazol-7-yl)-2-methyl-2-(tetrahydro-2H-pyran-4-yl)propan-1-ol]: the IC50 in assay [1], in assay [2], in assay [3] and in assay [4] was 0.0001 to 10 µM throughout.

`OC(c1cc(Cl)c(F)c2cn[nH]c12)C(F)(F)C1CCOCC1` (stereo not drawn) [Compound P-0218, 1-(5-chloro-4-fluoro-1H-indazol-7-yl)-2,2-difluoro-2-(tetrahydro-2H-pyran-4-yl)ethan-1-ol]: the IC50 in assay [1], in assay [2], in assay [3] and in assay [4] was 0.0001 to 10 µM each time.

In the case of `O=C(O)C1CCC(C(O)c2cc(Cl)cc3cn[nH]c23)CC1` (stereo not drawn) [Compound P-0219, 4-((5-chloro-1H-indazol-7-yl)(hydroxy)methyl)cyclohexane-1-carboxylic acid], the IC50 in assay [1] was greater than 10 µM; in assay [2] it was 10 to 100 µM; in assay [3], greater than 10 µM; in assay [4], 0.0001 to 10 µM.

Turning to `CC(C)(C1CCOCC1)C(O)c1c(Cl)c(Cl)cc2cn[nH]c12` (stereo not drawn) [Compound P-0220, 1-(5,6-dichloro-1H-indazol-7-yl)-2-methyl-2-(tetrahydro-2H-pyran-4-yl)propan-1-ol], the concentration for half-maximal inhibition (IC50) in assay [1], in assay [2], in assay [3] and in assay [4] was 0.0001 to 10 µM each time.

For the compound `OC(c1cc(Cl)cc2cn[nH]c12)C1(C2CCOCC2)CC1` (stereo not drawn) [Compound P-0221, (5-chloro-1H-indazol-7-yl)(1-(tetrahydro-2H-pyran-4-yl)cyclopropyl)methanol], the IC50 in assay [1], in assay [2], in assay [3] and in assay [4] was 0.0001 to 10 µM each time.

In the case of `CC(F)(F)C1(C(C)(F)F)CC(O)(c2cc(Cl)cc3cn[nH]c23)C1` [Compound P-0222, 1-(5-chloro-1H-indazol-7-yl)-3,3-bis(1,1-difluoroethyl)cyclobutan-1-ol], the IC50 in assay [1], in assay [2], in assay [3] and in assay [4] was 0.0001 to 10 µM throughout.

On to `CCC1(C(O)c2cc(Cl)cc3cn[nH]c23)CCC1` (stereo not drawn) [Compound P-0223, (5-chloro-1H-indazol-7-yl)(1-ethylcyclobutyl)methanol], for which the IC50 in assay [1], in assay [2], in assay [3] and in assay [4] was 0.0001 to 10 µM each time.

Turning to `CC(C)(C1CC1)C(O)c1cc(Cl)cc2cn[nH]c12` (stereo not drawn) [Compound P-0224, 1-(5-chloro-1H-indazol-7-yl)-2-cyclopropyl-2-methylpropan-1-ol], the IC50 in assay [1], in assay [2], in assay [3] and in assay [4] was 0.0001 to 10 µM throughout.

`OC(c1cc(Cl)cc2cn[nH]c12)C1(C2CC2)CC1` (stereo not drawn) [Compound P-0225, [1,1′-bi(cyclopropan)]-1-yl(5-chloro-1H-indazol-7-yl)methanol]: the IC50 in assay [1], in assay [2], in assay [3] and in assay [4] was 0.0001 to 10 µM each time.
